Test results as given in US10188617B2, “Modulation of cellular DNA repair activity to intercept malignancy” (THE BOARD OF TRUSTEES OF THE LELAND STANFORD JUNIOR …, priority 2013, dated 2019).
Counter-ions that a name gives are not always drawn.

How the values were obtained:
[1] = system: BER of ODD in SUM149PT cells; test: High-throughput chemical screen with cell-based DNA repair assay (oxidatively damaged GFP reporter, host-cell reactivation); conditions: for EC50: read-out: EC50 (image analysis), dose-response increase in GFP expression by imaging, 20 μM to 0.3 μM two-fold dilutions; for Priority score (summed priority score): sum of assigned priority scores, range 1-10, 10 = highest priority; for % BER (High) (image analysis): % BER activity relative to negative control at high concentration; for identified as hit in the screen (enhanced BER of ODD): LOPAC1280 library, summed priority score above 1;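 as to all read-outs here: SUM149PT cells pretreated 24 h with compound, then given photodynamically oxidized adenoviral GFP reporter, 24 h host-cell reactivation, GFP read as repair, undamaged reporter positive and damaged reporter negative control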
[2] = system: 8oxoG lesions in breast cancer cell lines with defective BER; test: 8oxoG lesions (OxyFlow Kit); type: cell-based, human; conditions: time-dependent
Description: Cells were analyzed using the OxyFlow™ Kit (Hemogenix) according to the manufacturer's instructions.

[3] = system: other BER-defective breast cancer cell lines; test: Hoechst live-cell staining (cell number); type: cell-based, human; conditions: 20 μM
Description: (§1) Cells were treated with acetohexamide for 48 hours in quadruplicate and then incubated with 2 μg/ml Hoechst 33358 live-cell dye for 20 minutes. Four representative fields for each replicate were imaged by the ImageXpress 5000A high-content imager (Molecular Devices). Nuclei were counted using MetaMorph® software (Molecular Devices) and expressed as a percentage relative to the vehicle control (DMSO).

[4] = system: SUM149PT cells; test: Hoechst live-cell staining (cell number); type: cell-based, human; conditions: concentrations up to 40 μM
Description: as §1

[5] = system: BER-defective and BER-proficient cells; test: Alkaline comet assay, strand breaks; type: cell-based; conditions: compared to the vehicle control; H2O2 positive control
Description: (§2) Cells were collected and embedded into CometAssay® LM Agarose (Trevigen) and placed on CometAssay® HT Slides (Trevigen) in duplicate. Cells were lysed at 4° C. in Lysis Buffer (Trevigen) for >24 hours. Slides were treated with or without FPG enzyme at 37° C. and 5% CO2 for 45 minutes to nick DNA at sites of ODD and then subjected to alkaline treatment at 4° C. for 40 minutes to denature DNA. Slides underwent electrophoresis under alkaline conditions to separate intact from damaged DNA. Following neutralization, DNA was stained using SYBR® green I and visualized as a comet in shape by fluorescent microscopy under 20× objective. […] CometScore software was used to quantify % DNA in Tail. Strand breaks were determined by % DNA in Tail in FPG-minus samples. ODD was determined by subtracting % DNA in Tail in FPG-minus samples from % DNA in Tail in FPG-plus samples.

[6] = system: H2O2-induced ODD in breast cancer cell lines with defective BER; test: Alkaline comet assay modified for detection of oxidative lesions (FPG); type: cell-based, human; conditions: pretreatment, compared to undamaged control
Description: as §2

[7] = system: SUM149PT and other cell lines; test: MTT assay (cell viability); type: cell-based, human; conditions: concentrations up to 1 mM, 72 hours
[8] = system: BER of ODD in SUM149 cells (mutant BRCA1, BER-defective); test: DNA repair assay (oxidatively damaged GFP reporter gene), follow-up; type: cell-based, human; conditions: for relative BER activity: relative to the control (DMSO); for repair activity compared to the vehicle control: SUM149
Description: (§3) Human breast cancer cell lines that were deficient in BER (HCC1143, MDAMB468, HCC1937, and SUM149) or proficient in BER (BT474 and MCF7) were cultured according to American Type Culture Collection guidelines, with the exception of SUM149, which was cultured according to Asterand plc guidelines. Brca1^+/+ and Brca1^-/- mouse mammary epithelial […] previously described. Cells were treated with DMSO (vehicle control) or acetohexamide or benserazide as indicated for 24 hours at 37° C. and 5% CO2. The DNA repair assay was carried out as described in the examples below. Where indicated, BER (base excision mode of DNA repair) activity was expressed relative to the control (DMSO).

[9] = system: BER of ODD in BT474 cells (wild-type BRCA1); test: as above; type: cell-based, human; conditions: 20 μM, BT474, vs vehicle
Description: as §3

[10] = system: BER of ODD in HCC1937 cells (mutant BRCA1); test: as above; type: cell-based, human; conditions: 20 μM, HCC1937, vs vehicle
Description: as §3

[11] = system: BER of ODD in MCF7 cells (wild-type BRCA1, BER-proficient); test: as above; type: cell-based, human; conditions: for repair compared to vehicle control (SAR mini-analysis): BER-proficient MCF7 cells
Description: as §3

[12] = system: MCF7 cells transduced with non-targeting control; test: Soft agar colony formation assay; type: cell-based, human
Description: (§4) […] Colony formation represents tumorigenic potential. Tamoxifen is the current FDA-approved chemoprevention agent for breast cancer and a therapeutically-equivalent dose was used for comparison.
(§5) Benserazide and carbidopa were also both included among the compounds screened for BER-enhancing activity (FIG. 3A-3B). […] Therefore, we first validated our screening data by subjecting the mutant BRCA1-containing SUM149 cell line to the BER assay following pre-treatment with vehicle control or carbidopa.

[13] = system: MCF7 cells transduced with shRNA to BRCA1; test: Soft agar colony formation assay; type: cell-based, human
Description: as §4, §5

Compound: Cl.NC(CO)C(=O)NNCc1ccc(O)c(O)c1O (racemic) [Benserazide hydrochloride, DL-Serine 2-(2,3,4-trihydroxybenzyl)hydrazide hydrochloride]
- EC50 [1]: 22.1 µM
- Priority score (summed priority score) [1]: 7

Compound: COC(=O)C(N)Cc1ccc(Cl)cc1.Cl (racemic) [DL-p-Chlorophenylalanine methyl ester hydrochloride]
- EC50 [1]: 25.8 µM
- Priority score (summed priority score) [1]: 7

Compound: CN(C)CCC(c1ccc(Br)cc1)c1ccccn1.O=C(O)/C=C\C(=O)O (single isomer, unassigned; (+)) [(+)-Brompheniramine maleate]
- % BER (High) (image analysis) ([1]; imaging): 29.4%
- EC50 [1]: 27.5 µM
- Priority score (summed priority score) [1]: 7

Compound: Cl.NCCc1ccc(S(=O)(=O)F)cc1 [4-(2-Aminoethyl)benzenesulfonyl fluoride hydrochloride]
- % BER (High) (image analysis) ([1]; imaging): 25.1%
- EC50 [1]: 98.7 µM
- Priority score (summed priority score) [1]: 7

Compound: O=c1[nH]c(=O)n([C@H]2C[C@H](O)[C@@H](CO)O2)cc1Br [5-Bromo-2′-deoxyuridine]
- GFP signal in image montage ([1]; preliminary screen, highest concentration tested 18 uM): visible signal similar to that of SUM149PTcells infected with undamaged adGFP
- percentage of GFP-positive cells (normalized to Hoechst 33342-positive cells) ([1]; preliminary screen, imaging): dose-response increase in the percentage of GFP-positive cells
- GFP intensity (normalized to Hoechst 33342-intensity) ([1]; preliminary screen, plate reading): dose-response increase in GFP intensity
- EC50 [1]: 7.27 µM
- Priority score (summed priority score) [1]: 10

Compound: CC(=O)c1ccc(S(=O)(=O)NC(=O)NC2CCCCC2)cc1 [Acetohexamide]
- basal levels of 8oxoG lesions [2]: decreased basal levels of 8oxoG lesions
- cell number (Hoechst 33342 staining) [3]: nor did it affect the cell number
- number of cells (Hoechst 33342 staining) [4]: did not affect the number of SUM149PT cells
- DNA strand breaks [5]: did not significantly induce DNA strand breaks
- H2O2-induced ODD [6]: decreased H2O2-induced ODD to levels similar to those of the undamaged control
- EC50 [1]: 42.4 µM
- Hoechst-positive cells ([1]; screening data by imaging, compared to negative control): 87.8%
- Priority score (summed priority score) [1]: 7
- cell viability (MTT) [7]: did not affect the cell viability
- BER ([8]; 20 μM, SUM149, vs vehicle): statistically significant increase in BER
- repair of oxidatively damaged GFP reporter gene, dose-response ([8]; SUM149PT cells, 24 hours treatment): dose-response increase in repair of an oxidatively damaged GFP reporter gene
- relative BER activity [8]: 1.68±0.13
- BER [9]: no effect on BER
- BER [10]: statistically significant increase in BER
- BER ([11]; 20 μM, MCF7, vs vehicle): no effect on BER

Compound: N=c1ccn2c(n1)O[C@H]1[C@H](O)[C@@H](CO)O[C@H]12 [Ancitabine hydrochloride]
- EC50 [1]: 19.8 µM
- Priority score (summed priority score) [1]: 10

Compound: Cc1ccc(S(=O)(=O)NC(=O)NC2CCCCC2)cc1 [BA-4]
- BER compared to the vehicle control (SAR mini-analysis) ([8]; SUM149PT cells): significantly increased BER
- repair compared to vehicle control (SAR mini-analysis) [11]: none of the four analogs significantly increased repair

Compound: CCCCNC(=O)NS(=O)(=O)c1ccccc1 [BA-5]
- BER compared to the vehicle control (SAR mini-analysis) ([8]; SUM149PT cells): increased BER in these cells but without statistical significance
- repair compared to vehicle control (SAR mini-analysis) [11]: none of the four analogs significantly increased repair

Compound: CC(C)CCNC(=O)NS(=O)(=O)c1ccccc1 [BA-9]
- BER compared to the vehicle control (SAR mini-analysis) ([8]; SUM149PT cells): significantly increased BER
- repair compared to vehicle control (SAR mini-analysis) [11]: none of the four analogs significantly increased repair

Compound: CC(C)COCC(CN(Cc1ccccc1)c1ccccc1)N1CCCC1 (stereo not drawn) [Bepridil hydrochloride]
- EC50 [1]: 22.7 µM
- Priority score (summed priority score) [1]: 10

Compound: CC[N+](C)(C)Cc1ccccc1Br [Bretylium tosylate]
- EC50 [1]: 26.9 µM
- Priority score (summed priority score) [1]: 7

Compound: CNc1ccc2oc(C[C@H]3O[C@@]4(CC[C@H]3C)O[C@H]([C@H](C)C(=O)c3ccc[nH]3)[C@H](C)C[C@H]4C)nc2c1C(=O)O [Calcimycin]
- EC50 [1]: 5.14 µM
- Priority score (summed priority score) [1]: 7

Compound: C[C@@]12C(=O)OC(=O)[C@]1(C)[C@H]1CC[C@@H]2O1 [Cantharidin]
- Priority score (summed priority score) [1]: 10

Compound: C[C@H](CS)C(=O)N1CCC[C@H]1C(=O)O [Captopril]
- EC50 [1]: 18.8 µM
- Priority score (summed priority score) [1]: 7

Compound: CN(C)CCOC(=O)COc1ccc(Cl)cc1 [Centrophenoxine hydrochloride]
- EC50 [1]: 20.4 µM
- Priority score (summed priority score) [1]: 7

Compound: Clc1ccccc1C(c1ccccc1)(c1ccccc1)n1ccnc1 [Clotrimazole]
- Priority score (summed priority score) [1]: 7

Compound: CC(=O)O[C@]1(C(C)=O)CC[C@H]2[C@@H]3C=C(Cl)C4=CC(=O)[C@@H]5C[C@@H]5[C@]4(C)[C@H]3CC[C@@]21C [Cyproterone acetate]
- EC50 [1]: 27.8 µM
- Priority score (summed priority score) [1]: 7

Compound: Cl.Nc1ccn([C@@H]2O[C@H](CO)[C@@H](O)[C@@H]2O)c(=O)n1 [Cytosine-1-beta-D-arabinofuranoside hydrochloride]
- % BER (High) (image analysis) ([1]; imaging): 18.3%
- EC50 [1]: 22.8 µM
- Priority score (summed priority score) [1]: 10

Compound: Cc1cnc(C(=O)NCCc2ccc(S(=O)(=O)NC(=O)NC3CCCCC3)cc2)cn1 [Glipizide, N-(4-[N-(cyclohexylcarbamoyl)sulfamoyl]phenethyl)-5-methylpyrazine-2-carboxamide]
- identified as hit in the screen (enhanced BER of ODD) [1]: identified as a hit
- Priority score (summed priority score) [1]: 2
- BER compared to the vehicle control (SAR mini-analysis) ([8]; SUM149PT cells): significantly increased BER
- relative BER activity [8]: 1.22±0.12
- repair compared to vehicle control (SAR mini-analysis) [11]: none of the four analogs significantly increased repair

Compound: O=C1c2c(O)ccc(O)c2C(=O)c2c(NCCNCCO)ccc(NCCNCCO)c21 [Mitoxantrone]
- EC50 [1]: 13.2 µM
- Priority score (summed priority score) [1]: 7

Compound: C[C@@](Cc1ccc(O)c(O)c1)(NN)C(=O)O [carbidopa, Carbidopa]
- identified as hit in the screen (enhanced BER of ODD) [1]: did not identify carbidopa as a hit
- repair activity compared to the vehicle control ([8]; 10 μM): no effect on repair activity
- repair activity compared to the vehicle control ([8]; 20 μM): no effect on repair activity
- colony formation compared to vehicle control ([12]; 10 μM): no significant effect on colony formation
- colony formation compared to vehicle control ([12]; 20 μM): no significant effect on colony formation
- colony formation compared to vehicle control ([13]; 10 μM): no significant effect on colony formation
- colony formation compared to vehicle control ([13]; 20 μM): no significant effect on colony formation
